Patent EP3046573B1, “AMYLIN ANALOGUES” (Zealand Pharma A/S, priority 2013, dated 2015)
Read-outs that look alike come from different tables or passages of the source. Numbered stars: 1 amine (or outer) side, 2 acyl side, 3 side chain; on linkers, the order of the positions; unused ones are H or OH. Bridge positions count the residues as written; N and C are the ends. Square brackets hold non-standard residues; d marks the D form. Peptide text beside a SMILES is read from it. * marks the point of attachment. C20 diacid = O=C(O)CCCCCCCCCCCCCCCCCCC(=O)*; γGlu = O=C(O)[C@H](CCC(=O)[*:2])N[*:1]; NMeI = CC[C@H](C)[C@H](NC)C(=O)O; NMeA = CN[C@@H](C)C(=O)O; Sar = CNCC(=O)O

Key:
[1] = target: T1, human calcitonin receptor (hCTR2) (Homo sapiens, UniProt P30988); assay: hCTR2 assay: induction of cAMP (AlphaScreen cAMP Assay kit) in COS7 cells expressing hCTR2; type: cell-based
T1 construct: expressed in transfected cells
T1 sequence (P30988 25-474): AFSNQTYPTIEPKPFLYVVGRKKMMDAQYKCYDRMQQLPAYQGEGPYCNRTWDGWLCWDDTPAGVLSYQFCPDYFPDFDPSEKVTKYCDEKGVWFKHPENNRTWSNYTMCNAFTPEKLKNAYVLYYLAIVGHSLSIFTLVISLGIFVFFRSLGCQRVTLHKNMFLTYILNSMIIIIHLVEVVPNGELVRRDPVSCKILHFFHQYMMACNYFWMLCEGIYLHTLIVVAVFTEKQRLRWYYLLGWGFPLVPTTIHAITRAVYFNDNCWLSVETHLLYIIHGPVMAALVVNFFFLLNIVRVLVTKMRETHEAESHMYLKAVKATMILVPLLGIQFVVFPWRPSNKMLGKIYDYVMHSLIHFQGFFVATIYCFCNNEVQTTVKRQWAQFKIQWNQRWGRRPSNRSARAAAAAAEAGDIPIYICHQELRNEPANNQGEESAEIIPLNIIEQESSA
Method in brief: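 COS7 stable hCTR2 clone (RAMP-free); peptide dose-response 15 min 37° C in Tyrode pH 7.4 + 100 µM IBMX + 0.1% casein; lysis 10 min RT; AlphaScreen cAMP; 4PL fit.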

[2] = target: T2, human amylin receptor 3 (hAMYR3) consisting of hCTR2 co-expressed with human Receptor Activity Modifying Protein 3 (hRAMP3) (Homo sapiens, UniProt O60896+P30988); assay: hAMYR3 assay: induction of cAMP (AlphaScreen cAMP Assay kit) in COS7 cells expressing hAMYR3; type: cell-based
T2 construct: expressed in transfected cells
T2 sequence (P30988 25-474): T1 sequence (P30988 25-474)
T2 sequence (O60896 24-148 partner): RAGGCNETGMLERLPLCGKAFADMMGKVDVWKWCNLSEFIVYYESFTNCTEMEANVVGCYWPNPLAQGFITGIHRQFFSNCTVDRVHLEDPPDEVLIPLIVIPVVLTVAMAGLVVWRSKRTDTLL
Method in brief: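 Stable COS7 clone co-expressing hCTR2 and hRAMP3, stimulated 15 min at 37° C with increasing peptide in Tyrode buffer pH 7.4 with 100 µM IBMX and 0.1% casein. cAMP measured by AlphaScreen after lysis; EC50 and % efficacy versus pramlintide from 4PL fit.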

[3] = Solubility assessment (turbidity absorbance at 325 nm); type: physicochemical; conditions: stock 2 mg/ml diluted 1:1, ambient temperature (typically 25°C), n=1; for Solubility, Acetate buffer pH 4: 100 mM acetate buffer pH 4.0; for Solubility, Acetate buffer pH 5: 100 mM acetate buffer pH 5.0; for Solubility, Histidine buffer pH 6: 100 mM histidine buffer pH 6.0; for Solubility, Histidine buffer pH 7: 100 mM histidine buffer pH 7.0; for Solubility, Phosphate buffer pH 6: 100 mM phosphate buffer pH 6.0; for Solubility, Phosphate buffer pH 7: 100 mM phosphate buffer pH 7.0; for Solubility, Phosphate buffer pH 7.5: 100 mM phosphate buffer pH7.5
Method in brief: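 Peptide stock (2 mg/ml, water pH 2.5) diluted 1:1 into 100 mM acetate (pH 4.0, 5.0), histidine (pH 6.0, 7.0) or phosphate (pH 6.0–7.5) buffer; absorbance at 325 nm read at about 25°C, n=1. A325 ≤ 0.02 taken as solubility ≥ 1 mg/ml.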

[4] = cAMP induction in COS7 cells expressing hCTR2, average of a minimum of 3 determinations, read-out: hCTR2 EC50
[5] = cAMP induction in COS7 cells expressing hAMYR3, average of a minimum of 3 determinations, read-out: hAMY R3 EC50

Row | SMILES | EC50 [1] [nM] | EC50 [2] [nM] | Solubility, Acetate buffer pH 4 [3] | Solubility, Acetate buffer pH 5 [3] | Solubility, Histidine buffer pH 6 [3] | Solubility, Histidine buffer pH 7 [3] | Solubility, Phosphate buffer pH 6 [3] | Solubility, Phosphate buffer pH 7 [3] | Solubility, Phosphate buffer pH 7.5 [3] | EC50 [1, 4] [nM] | EC50 [2, 5] [nM]
1 | CC[C@H](C)[C@@H](C(=O)N[C@@H](CC(C)C)C(=O)N[C@@H](CO)C(=O)N[C@@H](CO)C(=O)N[C@H](C(=O)N[C@@H](CC(N)=O)C(=O)N[C@H](C(=O)NCC(=O)N[C@@H](CO)C(=O)N[C@@H](CC(N)=O)C(=O)N[C@H](C(=O)N(C)[C@@H](C)C(N)=O)[C@@H](C)O)C(C)C)[C@@H](C)O)N(C)C(=O)[C@H](C)NC(=O)CN(C)C(=O)[C@H](Cc1ccccc1)NC(=O)[C@H](CC(N)=O)NC(=O)[C@H](CC(N)=O)NC(=O)[C@H](CO)NC(=O)[C@H](CO)NC(=O)[C@H](CCCNC(=N)N)NC(=O)[C@H](Cc1c[nH]cn1)NC(=O)[C@H](CC(C)C)NC(=O)[C@H](Cc1ccccc1)NC(=O)[C@H](CCC(=O)O)NC(=O)[C@H](C)NC(=O)[C@H](CC(C)C)NC(=O)[C@H](CCCNC(=N)N)NC(=O)[C@H](CCC(N)=O)NC(=O)[C@@H](NC(=O)[C@H](C)NC(=O)[C@@H]1CSSC[C@H](NC(=O)[C@H](CCCNC(=N)N)NC(=O)CC[C@H](NC(=O)CCCCCCCCCCCCCCCCCCC(=O)O)C(=O)O)C(=O)N[C@@H](CC(N)=O)C(=O)N[C@@H]([C@@H](C)O)C(=O)N[C@@H](C)C(=O)N[C@@H]([C@@H](C)O)C(=O)N1)[C@@H](C)O [Compound 102, [19CD]-isoGlu-RC()NTATC()ATQRLAEFLHRSSNNF-Gly(Me)-A-Ile(Me)-LSSTNVGSNT-Ala(Me)-NH2] ({C20 diacid-γGlu}-RCNTATCATQRLAEFLHRSSNNF[Sar]A[NMeI]LSSTNVGSNT[NMeA]-NH2; disulfide 2-7) | 0.42 | 1 | SS (SS indicates solubility ≥ 1mg/ml) | II (II indicates solubility ≤ 1 mg/ml) | SS (SS indicates solubility ≥ 1mg/ml) | SS (SS indicates solubility ≥ 1mg/ml) | II (II indicates solubility ≤ 1 mg/ml) | SS (SS indicates solubility ≥ 1mg/ml) | SS (SS indicates solubility ≥ 1mg/ml) |  | 
2 | CC[C@H](C)[C@@H](C(=O)N[C@@H](CC(C)C)C(=O)N[C@@H](CO)C(=O)N[C@@H](CO)C(=O)N[C@H](C(=O)N[C@@H](CCC(=O)O)C(=O)N[C@H](C(=O)NCC(=O)N[C@@H](CO)C(=O)N[C@@H](CCC(=O)O)C(=O)N[C@H](C(=O)N1CCC[C@H]1C(N)=O)[C@@H](C)O)C(C)C)[C@@H](C)O)N(C)C(=O)[C@H](C)NC(=O)CN(C)C(=O)[C@H](Cc1ccccc1)NC(=O)[C@H](CO)NC(=O)[C@H](CO)NC(=O)[C@H](CO)NC(=O)[C@H](CO)NC(=O)[C@H](CCCNC(=N)N)NC(=O)[C@H](Cc1c[nH]cn1)NC(=O)[C@H](CC(C)C)NC(=O)[C@H](Cc1ccccc1)NC(=O)[C@H](CCC(=O)O)NC(=O)[C@H](C)NC(=O)[C@H](CC(C)C)NC(=O)[C@H](CCCNC(=N)N)NC(=O)[C@H](CC(C)C)NC(=O)[C@@H](NC(=O)[C@H](C)NC(=O)[C@@H]1CSSC[C@H](NC(=O)[C@H](CCCNC(=N)N)NC(=O)CC[C@H](NC(=O)CCCCCCCCCCCCCCCCCCC(=O)O)C(=O)O)C(=O)N[C@@H](CC(N)=O)C(=O)N[C@@H]([C@@H](C)O)C(=O)N[C@@H](C)C(=O)N[C@@H]([C@@H](C)O)C(=O)N1)[C@@H](C)O [Compound 121, [19CD]-isoGlu-RC()NTATC()ATLRLAEFLHRSSSSF-Gly(Me)-A-Ile(Me)-LSSTEVGSETP-NH2] ({C20 diacid-γGlu}-RCNTATCATLRLAEFLHRSSSSF[Sar]A[NMeI]LSSTEVGSETP-NH2; disulfide 2-7) |  |  | SS (SS indicates solubility ≥ 1mg/ml) | SS (SS indicates solubility ≥ 1mg/ml) | II (II indicates solubility ≤ 1 mg/ml) | SS (SS indicates solubility ≥ 1mg/ml) | SS (SS indicates solubility ≥ 1mg/ml) | II (II indicates solubility ≤ 1 mg/ml) | SS (SS indicates solubility ≥ 1mg/ml) | 0.15 | 0.3
3 | CC[C@H](C)[C@@H](C(=O)N[C@@H](CC(C)C)C(=O)N[C@@H](CO)C(=O)N[C@@H](CO)C(=O)N[C@H](C(=O)N[C@@H](CCC(=O)O)C(=O)N[C@H](C(=O)NCC(=O)N[C@@H](CO)C(=O)N[C@@H](CCC(=O)O)C(=O)N[C@H](C(=O)N1CCC[C@H]1C(N)=O)[C@@H](C)O)C(C)C)[C@@H](C)O)N(C)C(=O)[C@H](C)NC(=O)CN(C)C(=O)[C@H](Cc1ccccc1)NC(=O)[C@H](CO)NC(=O)[C@H](CO)NC(=O)[C@H](CO)NC(=O)[C@H](CO)NC(=O)[C@H](CCCNC(=N)N)NC(=O)[C@H](Cc1c[nH]cn1)NC(=O)[C@H](CC(C)C)NC(=O)[C@H](Cc1ccccc1)NC(=O)[C@H](CCC(=O)O)NC(=O)[C@H](C)NC(=O)[C@H](CC(C)C)NC(=O)[C@H](CCCNC(=N)N)NC(=O)[C@H](CO)NC(=O)[C@@H](NC(=O)[C@H](C)NC(=O)[C@@H]1CSSC[C@H](NC(=O)[C@H](CCCNC(=N)N)NC(=O)CC[C@H](NC(=O)CCCCCCCCCCCCCCCCCCC(=O)O)C(=O)O)C(=O)N[C@@H](CC(N)=O)C(=O)N[C@@H]([C@@H](C)O)C(=O)N[C@@H](C)C(=O)N[C@@H]([C@@H](C)O)C(=O)N1)[C@@H](C)O [Compound 124, [19CD]-isoGlu-RC()NTATC()ATSRLAEFLHRSSSSF-Gly(Me)-A-Ile(Me)-LSSTEVGSETP-NH2] ({C20 diacid-γGlu}-RCNTATCATSRLAEFLHRSSSSF[Sar]A[NMeI]LSSTEVGSETP-NH2; disulfide 2-7) |  |  | SS (SS indicates solubility ≥ 1mg/ml) | SS (SS indicates solubility ≥ 1mg/ml) | SS (SS indicates solubility ≥ 1mg/ml) | SS (SS indicates solubility ≥ 1mg/ml) | SS (SS indicates solubility ≥ 1mg/ml) | SS (SS indicates solubility ≥ 1mg/ml) | SS (SS indicates solubility ≥ 1mg/ml) | 0.14 | 0.17
4 | CC[C@H](C)[C@@H](C(=O)N[C@@H](CC(C)C)C(=O)N[C@@H](CO)C(=O)N[C@@H](CO)C(=O)N[C@H](C(=O)N[C@@H](CC(=O)O)C(=O)N[C@H](C(=O)NCC(=O)N[C@@H](CO)C(=O)N[C@@H](CC(=O)O)C(=O)N[C@H](C(=O)N1CCC[C@H]1C(N)=O)[C@@H](C)O)C(C)C)[C@@H](C)O)N(C)C(=O)[C@H](C)NC(=O)CN(C)C(=O)[C@H](Cc1ccccc1)NC(=O)[C@H](CO)NC(=O)[C@H](CO)NC(=O)[C@H](CCCNC(=N)N)NC(=O)[C@H](Cc1c[nH]cn1)NC(=O)[C@H](CC(C)C)NC(=O)[C@H](Cc1ccccc1)NC(=O)[C@H](CCC(=O)O)NC(=O)[C@H](C)NC(=O)[C@H](CC(C)C)NC(=O)[C@H](CCCNC(=N)N)NC(=O)[C@H](CC(=O)O)NC(=O)[C@@H](NC(=O)[C@H](C)NC(=O)[C@@H]1CSSC[C@H](NC(=O)[C@H](CCCNC(=N)N)NC(=O)CC[C@H](NC(=O)CCCCCCCCCCCCCCCCCCC(=O)O)C(=O)O)C(=O)NCC(=O)N[C@@H]([C@@H](C)O)C(=O)N[C@@H](C)C(=O)N[C@@H]([C@@H](C)O)C(=O)N1)[C@@H](C)O [Compound 158, [19CD]-isoGlu-RC()GTATC()ATDRLAEFLHRSSF-Gly(Me)-A-Ile(Me)-LSSTDVGSDTP-NH2] ({C20 diacid-γGlu}-RCGTATCATDRLAEFLHRSSF[Sar]A[NMeI]LSSTDVGSDTP-NH2; disulfide 2-7) |  |  | SS (SS indicates solubility ≥ 1mg/ml) | SS (SS indicates solubility ≥ 1mg/ml) | SS (SS indicates solubility ≥ 1mg/ml) | SS (SS indicates solubility ≥ 1mg/ml) | SS (SS indicates solubility ≥ 1mg/ml) | SS (SS indicates solubility ≥ 1mg/ml) | SS (SS indicates solubility ≥ 1mg/ml) | 0.048 | 0.11
